Data published in article PMC10331946, “Characterization of Natural Compounds as Inhibitors of NS1 Endonuclease from Canine Parvovirus Type 2” (Journal of Microbiology and Biotechnology, 2023).
Several values for one entry are separate records, joined by “and”; a condition that tells them apart may be missing. Equal entries are not always repeated.

The compounds below were run against T1, CPV-2 NS1 endonuclease (Canine parvovirus type 2, UniProt P12929) (assay: FRET nicking assay, inhibition of recombinant CPV-2 NS1 endonuclease). Details: 50 μM inhibitor, 0.6 μM FRET substrate, 1.25 μg enzyme, 50 mM Tris/HCl pH 7.0, 37°C, 3 min.
T1 construct: hexahistidine (N); hexahistidine (C); made in house; host or cells: E. coli BL21 (De3) pLysS
T1 sequence (P12929 1-277): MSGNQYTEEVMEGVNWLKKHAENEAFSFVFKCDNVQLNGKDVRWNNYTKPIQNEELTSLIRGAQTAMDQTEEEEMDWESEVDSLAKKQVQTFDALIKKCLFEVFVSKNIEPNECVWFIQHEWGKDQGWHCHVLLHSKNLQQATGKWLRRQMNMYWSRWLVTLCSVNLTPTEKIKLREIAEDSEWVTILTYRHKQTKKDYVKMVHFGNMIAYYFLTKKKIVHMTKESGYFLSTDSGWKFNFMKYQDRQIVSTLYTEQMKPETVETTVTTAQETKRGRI
Type: biochemical, Canine parvovirus type 2 (CPV-2)
Text: The fluorescence resonance energy transfer (FRET) substrate, which was composed of an oligonucleotide 5¢-TAA CCT TAC CAT AAG TA↓T CAA TCT GTC TTT-3¢ labeled with carboxyfluorescein (FAM) at the 5¢-terminus and black hole quencher 1 (BHQ1) at the 3¢-terminus as the energy transfer pair, was designed and synthesized by Bioneer Corp. (Korea) (Fig. S1).
cDNA of the CPV-2 NS1 endonuclease gene was synthesized after codon optimization (Genscript, USA) based on the N-terminal amino acid sequence (amino acids 1–277 of the DNA-binding region) of CPV-2 NS1 endonuclease (GenBank Accession No. AAV36764.1) (Fig. S2). The CPV-2 NS1 endonuclease gene was imbedded into the pET-28a (+) vector (Novagen, Germany) with hexahistidine tags at the N- and C-termini. The plasmids were transformed into E. coli BL21 (De3) pLysS (Invitrogen, USA) for expression. The transformed cells were cultured in 1 L of LB containing 30 μg/ml kanamycin at 37°C until the OD600 reached 0.6. Next, protein expression was induced with 1 mM isopropyl β-D-1-thiogalactopyranoside (IPTG) at 24°C for 20 h. Cells were harvested by centrifugation at 12,000 ×g for 25 min and 4°C. The pellet was resuspended in 50 ml 50 mM Tris-HCl buffer (pH 7.0) containing 300 mM NaCl and disrupted by sonication. After centrifugation at 12,000 ×g for 30 min and 4°C, the supernatant was applied to a Ni-NTA agarose column (Qiagen, Germany) and washed with 50 mM Tris-HCl buffer (pH 8.0) containing 300 mM NaCl and 20 mM imidazole. CPV-2 NS1 endonuclease was eluted with 50 mM Tris-HCl buffer (pH 8.0) containing 300 mM NaCl, and 250 mM imidazole, and dialyzed against 50 mM Tris-HCl (pH 7.0) containing 300 mM NaCl at 4°C overnight. The purified protein was stored at −20°C until required.
CPV-2 NS1 endonuclease activity was measured using an FRET substrate as described above. The reaction mixture was composed of 1.25 μg endonuclease and 0.6 μM FRET in 50 mM Tris-HCl buffer (pH 7.0). The reaction was run at 37°C with continuous monitoring of fluorescence for 10 min. Relative fluorescence units (RFUs) were measured using a SpectraMax M3 fluorescence plate reader (Molecular Devices, USA) with an excitation wavelength of 495 nm and an emission wavelength of 517 nm.
Thirty-one compounds, extracted sesame cake, turmeric, and yerba mate were tested for inhibitory effects against CPV-2 NS1 endonuclease. For screening, thirty-one compounds, turmeric, and yerba mate were dissolved in dimethyl sulfoxide (DMSO) to 5 mM or 10 mg/ml as stock solutions. Sesame cake extract (10 mg/ml) was solubilized in water. The reaction was initiated by adding 0.6 μM FRET substrate to a mixture of 50 μM compound and 1.25 μg endonuclease in 50 mM Tris-HCl buffer (pH 7.0) containing 300 mM NaCl. The reaction was run at 37°C for 3 min using a SpectraMax M3 fluorescence plate reader with an excitation wavelength of 495 nm and emission wavelength of 517 nm. Inhibitory activity was calculated using the following equation:
Inhibition activity (%) 100-[(S-S0)÷(C-C0)]×100
where C is RFU of the control (enzyme, buffer, and substrate) after a 3 min reaction, C0 is the RFU of the control at 0 min, S is the RFU of the sample (enzyme, buffer, inhibitor, and substrate) after 3 min, and S0 is the RFU of the sample at 0 min.
We determined the 50% inhibitory concentrations (IC50) of the six natural compounds, extracted turmeric, yerba mate, and sesame cake relative to the inhibitor-free control. The IC50 values of curcumin, and extracted sesame cake were calculated using a four-parameter logistic curve (4PL) using Prism v. 8 software (GraphPad Software Inc., USA). […] 8 software.

Row | Compound | Inhibition (%) at 50 μM
1 | O=C(O)c1cc(O)c(O)c(O)c1 [Gallic acid] | 2 ± 2%
2 | O=c1c(O[C@@H]2O[C@H](CO)[C@@H](O)[C@H](O)[C@H]2O)c(-c2ccc(O)cc2)oc2cc(O)cc(O)c12 [Astragalin] | did not inhibit
3 | O=C(/C=C/c1ccc(O)c(O)c1)O[C@@H]1C[C@](O)(C(=O)O)C[C@@H](O)[C@H]1O [Chlorogenic acid] | 29 ± 4%
4 | O=C(/C=C/C=C/c1ccc2c(c1)OCO2)N1CCCCC1 [Piperine] | did not inhibit
5 | O=C1O[C@H]([C@@H](O)CO)C(O)=C1O [L-Ascorbic acid] | did not inhibit
6 | Cc1c(C)c2c(c(C)c1O)CC[C@@](C)(CCC[C@H](C)CCC[C@H](C)CCCC(C)C)O2 [α-Tocopherol (Vitamin E), α-Tocopherol] | 98 ± 3%
7 | O=C(O)/C=C/c1ccc(O)c(O)c1 [Caffeic acid] | 42 ± 8%
8 | C[C@@H]1O[C@@H](OC[C@H]2O[C@@H](Oc3c(-c4ccc(O)c(O)c4)oc4cc(O)cc(O)c4c3=O)[C@H](O)[C@@H](O)[C@@H]2O)[C@H](O)[C@H](O)[C@H]1O [Rutin] | did not inhibit
9 | COc1cc(/C=C/C(=O)CC(=O)/C=C/c2ccc(O)cc2)ccc1O [Demethoxycurcumin] | 100%
10 | O=c1c2cc(O)c(O)cc2oc2cc(O)c([C@@H]3O[C@H](CO)[C@@H](O)[C@H](O)[C@H]3O)c(O)c12 [Mangiferin] | did not inhibit
11 | O=C1C[C@@H](c2ccc(O)cc2)Oc2cc(O)cc(O)c21 [Naringenin] | did not inhibit
12 | O=c1c(O)c(-c2cc(O)c(O)c(O)c2)oc2cc(O)cc(O)c12 [Myricetin] | did not inhibit
13 | Oc1ccc2c(c1)OCO2 [Sesamol] | 9 ± 5%
14 | CCCCC/C=C\C/C=C\CCCCCCCC(=O)O [Linoleic acid] | 100%

Same assay, conditions: 50 μM inhibitor, 0.6 μM FRET substrate, 1.25 μg enzyme, 50 mM Tris/HCl pH 7.0, 37°C, 3 min; listed as caffeic acid

Row | Compound | Inhibition (%) at 50 μM
15 | O=C(O)/C=C/c1ccc(O)c(O)c1 [Caffeic acid] | < 50% and > 29%

Same assay, conditions: 50 μM inhibitor, 0.6 μM FRET substrate, 1.25 μg enzyme, 50 mM Tris/HCl pH 7.0, 37°C, 3 min; listed as chlorogenic acid

Row | Compound | Inhibition (%) at 50 μM
16 | O=C(/C=C/c1ccc(O)c(O)c1)O[C@@H]1C[C@](O)(C(=O)O)C[C@@H](O)[C@H]1O [Chlorogenic acid] | < 50% and > 29%

Same assay, conditions: 50 μM inhibitor, 0.6 μM FRET substrate, 1.25 μg enzyme, 50 mM Tris/HCl pH 7.0, 37°C, 3 min; listed as gallic acid

Row | Compound | Inhibition (%) at 50 μM [%]
17 | O=C(O)c1cc(O)c(O)c(O)c1 [Gallic acid] | < 50

Same assay, conditions: 50 μM inhibitor, 0.6 μM FRET substrate, 1.25 μg enzyme, 50 mM Tris/HCl pH 7.0, 37°C, 3 min; listed as sesamol

Row | Compound | Inhibition (%) at 50 μM [%]
18 | Oc1ccc2c(c1)OCO2 [Sesamol] | < 50

Same assay, conditions: pH 7, 50 μM inhibitor, 0.6 μM FRET substrate, 1.25 μg enzyme, 50 mM Tris/HCl pH 7.0, 37°C, 3 min; read-out: Inhibition (%) at 50 μM

Row | Compound | inhibition at 50 µM [%]
19 | CC1=C(C/C=C(\C)CCC[C@H](C)CCC[C@H](C)CCCC(C)C)C(=O)c2ccccc2C1=O [Vitamin K1] | 68 ± 15
20 | O=c1c(O[C@@H]2O[C@H](CO)[C@@H](O)[C@H](O)[C@H]2O)c(-c2ccc(O)cc2)oc2cc(O)cc(O)c12 [Astragalin] | 0
21 | O=C(/C=C/C=C/c1ccc2c(c1)OCO2)N1CCCCC1 [Piperine] | 0
22 | O=C1O[C@H]([C@@H](O)CO)C(O)=C1O [L-Ascorbic acid] | 0
23 | C[C@@H]1O[C@@H](OC[C@H]2O[C@@H](Oc3c(-c4ccc(O)c(O)c4)oc4cc(O)cc(O)c4c3=O)[C@H](O)[C@@H](O)[C@@H]2O)[C@H](O)[C@H](O)[C@H]1O [Rutin] | 0
24 | O=c1c2cc(O)c(O)cc2oc2cc(O)c([C@@H]3O[C@H](CO)[C@@H](O)[C@H](O)[C@H]3O)c(O)c12 [Mangiferin] | 0
25 | O=C1C[C@@H](c2ccc(O)cc2)Oc2cc(O)cc(O)c21 [Naringenin] | 0
26 | O=c1c(O)c(-c2cc(O)c(O)c(O)c2)oc2cc(O)cc(O)c12 [Myricetin] | 0

Same assay, conditions: pH 7, read-out: Inhibition (%) at 50 μM, 50 μM inhibitor, 0.6 μM FRET substrate, 1.25 μg enzyme, 50 mM Tris/HCl pH 7.0, 37°C, 3 min

Row | Compound | inhibition at 50 µM [%]
27 | Cc1c(C)c2c(c(C)c1O)CC[C@@](C)(CCC[C@H](C)CCC[C@H](C)CCCC(C)C)O2 [α-Tocopherol (Vitamin E), α-Tocopherol] | > 95
28 | COc1cc(/C=C/C(=O)CC(=O)/C=C/c2ccc(O)cc2)ccc1O [Demethoxycurcumin] | > 95
29 | CCCCC/C=C\C/C=C\CCCCCCCC(=O)O [Linoleic acid] | > 95

Same assay, conditions: single compounds; 0.6 μM FRET substrate, 1.25 μg endonuclease, pH 7.0, 300 mM NaCl, 37°C, 3 min; curcumin by 4PL, others by linear regression

Row | Compound | IC50 [nM]
30 | Cc1c(C)c2c(c(C)c1O)CC[C@@](C)(CCC[C@H](C)CCC[C@H](C)CCCC(C)C)O2 [α-Tocopherol (Vitamin E), α-Tocopherol] | 8030 ± 800
31 | COc1cc(/C=C/C(=O)CC(=O)/C=C/c2ccc(O)cc2)ccc1O [Demethoxycurcumin] | 630 ± 10
32 | CCCCC/C=C\C/C=C\CCCCCCCC(=O)O [Linoleic acid] | 1140 ± 40
